Test results reported in patent publication US20080312229A1, “Organic Compounds” (Novartis AG, priority 2005, published 2008).

Biological target: T1, human CRTh2 (Homo sapiens, UniProt Q9Y5Y4)
T1 construct: expressed in transfected cells; host or cells: CHO.K1 (Chinese Hamster Ovary) cells, membrane preparation
T1 sequence (Q9Y5Y4 1-395): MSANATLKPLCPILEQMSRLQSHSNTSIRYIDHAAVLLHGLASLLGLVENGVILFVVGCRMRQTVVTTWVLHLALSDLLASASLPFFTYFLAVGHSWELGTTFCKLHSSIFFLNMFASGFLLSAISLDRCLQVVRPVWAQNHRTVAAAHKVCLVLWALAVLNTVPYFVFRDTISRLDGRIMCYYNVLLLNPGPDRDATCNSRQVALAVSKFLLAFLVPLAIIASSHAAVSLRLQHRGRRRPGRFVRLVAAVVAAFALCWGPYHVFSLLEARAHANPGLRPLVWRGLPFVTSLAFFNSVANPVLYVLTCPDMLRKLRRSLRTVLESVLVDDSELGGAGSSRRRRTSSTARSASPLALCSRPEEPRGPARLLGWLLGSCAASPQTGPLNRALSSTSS
Assay: CRTh2 [3H]-PGD2 binding assay (called SPA binding assay; filtration binding protocol described)
Conditions: competition with [3H]-PGD2 (2.5 nM), CHO.K1-CRTh2 membranes
Description: The binding of CRTh2 modulators is determined using membranes prepared from human CRTh2-expressing Chinese Hamster Ovary cells (CHO.K1-CRTh2). To produce cell membranes CHO.K1-CRTh2 cells cultured in roller bottles are harvested using cell dissociation buffer (Invitrogen). The cells are pelleted by centrifugation (167 g, 5 min). The cell pellet is incubated in hypotonic buffer (15 mM Tris-OH, 2 mM MgCl2, 0.3 mM EDTA, 1 mM EGTA, 1× Complete™ tablet) at 4° C. for 30 min. At 4° C. cells are homogenized using a Polytron® (IKA Ultra Turrax T25) for 5 bursts of 1 second. The homogenate is centrifuged (Beckman Optima TM TL Ultracentrifuge, 48000 g, 30 min at 4° C.). […]
The binding of [^3H]-PGD2 (157 Ci/mmol) to CHO.K1-CRTh2 membranes is determined in the absence (total binding) and presence (non-specific binding) of unlabelled PGD2 (1 μM). […]
The plates are incubated at room temperature on a shaker for 1 hour, and then harvested (Tomtec Harvester 9600) onto GF/C filter plates using wash buffer (10 mM HEPES-KOH, pH 7.4). […] Plates are then counted using a Packard Top Count instrument, Plates are then read on the Packard Topcount with the 3H Scintillation program (1 min per well).
Ki (dissociation constant for the inhibition) values for the CRTh2 modulators are reported. Ki values are determined using Sigma Plot™ software, using the Cheng-Prussoff equation. […]

Ki: 716 nM
SMILES: Cc1c(CC(=O)O)c2cccnc2n1CCc1ccccc1 [Example 1, (2-Methyl-1-phenethyl-1H-pyrrolo[2,3-b]pyridine-3-yl)-acetic acid]
